Test results taken from patent US20250049776A1, “AUTOPHAGY INDUCING COMPOUNDS AND USES THEREOF, IN PARTICULAR FOR A SYSTEMIC TREATMENT OF DISEASES AND CONDITIONS” (Samsara Therapeutics Inc., priority 2021, published 2025).

Tested on: Human osteosarcoma U20S cells
Test: Assay to measure lysosome and autolysosome formation (acidic vesicle formation, LysoView/LysoTracker staining)
Assay type: cell-based
Details: Homo sapiens; U2OS cells, concentration of 0.8 μM; read-out: Activity (percentage increase in acidic vesicle formation over the DMSO-treated control), Table 2
Experimental: Lysosomes play a fundamental role in the autophagic pathway by fusing with autophagosomes and creating ‘autolysosomes’ in order to digest their contents. Stimulation of lysosome and autolysosome formation by a compound is indicative of a stimulation of autophagy. The ability of compounds to stimulate lysosome and autolysosome formation, and thus autophagy, in live cells was assessed via fluorescent microscopy using various fluorescent stains for labelling and tracking acidic organelles (including lysosomes and autolysosomes) such as: LysoView™ 650 (70059 and 70059-T, Biotium), LysoViewTM633 (70058 and 70058-T, Biotium) and LysoTracker™ Deep Red (L12492, ThermoFisher Scientific). The cellular phenotype was quantitatively assessed for the induction of acidic vesicle formation and compared to a non-treated control, thus providing a measure of the ability of the compound under investigation to stimulate autophagy.
Representative procedure using LysoView™633 dye or LysoTracker™ Deep Red dye: Human osteosarcoma U20S cells (40,000 cells/well) were seeded in a 24 well glass bottom plate (Sensoplate, Greiner Bio-One) and were incubated overnight in a humidified atmosphere at 37° C. and 5% CO2. Cells were grown in DMEM (Gibco) supplemented with 10% Fetal Bovine Serum (FBS) and 100 units/ml penicillin and 100 μg/ml streptomycin (Invitrogen). After the attachment period, cells were treated with different compounds of interest (at various concentrations in DMSO) or DMSO (non-treated control) in cell culture medium and were incubated for 24 hours. Compound-containing medium was removed and cells were incubated with pre-warmed cell culture medium containing 1× LysoView™ 633 (70058 and 70058-T, Biotium) or 50 nM LysoTracker™ Deep Red (L12492, ThermoFisher Scientific) for 45 minutes at 37° C. Finally, cell nuclei were stained for 10 minutes using Hoechst 33342 (1 μg/mL) and then the medium was replaced with fresh medium. The 24 well plate was then fitted into a heated stage on the microscope and cells maintained at 37° C. Images were captured using appropriate filter set for Cy5 and DAPI detection with the EVOS M7000 Microscope (ThermoFisher Scientific). The cellular phenotype was visually assessed for the induction of acidic vesicle formation relative to the non-treated control; multiple images were acquired and analyzed using ImageJ or Cell Profiler.

SMILES	activation at 0.8 µM
CC(C)N(C(=O)c1ccc(-c2cnn(-c3ccccc3)c2)[nH]1)C1CCNCC1 [Compound 5, 5-(1-phenyl-1H-pyrazol-4-yl)-N-(piperidin-4-yl)-N-(propan-2-yl)-1H-pyrrole-2-carboxamide]	30 to 50%
NC[C@H]1CCCN1C(=O)c1ccc(-c2cnn(-c3ccccc3)c2)o1 [Compound 11, 1-[(2R)-1-[5-(1-phenyl-1H-pyrazol-4-yl)furan-2-carbonyl]pyrrolidin-2-yl]methanamine]	10 to 30%
O=C(NC[C@@H]1CCNC1)c1cc(-c2cnn(-c3ccccc3)c2)cs1 [Compound 16, 4-(1-phenyl-1H-pyrazol-4-yl)-N-{[(3R)-pyrrolidin-3-yl]methyl}thiophene-2-carboxamide]	10 to 30%
NCCCCCNC(=O)c1cc(-c2cnn(-c3ccccc3)c2)cs1 [Compound 17, N-(5-aminopentyl)-4-(1-phenyl-1H-pyrazol-4-yl)thiophene-2-carboxamide]	10 to 30%
CCCN(C(=O)c1csc(-c2cnn(-c3ccncc3)c2)n1)[C@@H]1CCNC1 [Compound 23, N-propyl-2-[1-(pyridin-4-yl)-1H-pyrazol-4-yl]-N-[(3R)-pyrrolidin-3-yl]-1,3-thiazole-4-carboxamide]	10 to 30%
CCCN(C(=O)c1csc(-c2cnn(-c3cccc(OC(F)(F)F)c3)c2)n1)[C@H]1CCNC1 [Compound 25, N-propyl-N-[(3S)-pyrrolidin-3-yl]-2-{1-[3-(trifluoromethoxy)phenyl]-1H-pyrazol-4-yl}-1,3-thiazole-4-carboxamide]	10 to 30%
CCCN(C(=O)c1csc(-c2cnn(-c3cccc(OC(F)(F)F)c3)c2)n1)[C@@H]1CCNC1 [Compound 26, N-propyl-N-[(3R)-pyrrolidin-3-yl]-2-{1-[3-(trifluoromethoxy)phenyl]-1H-pyrazol-4-yl}-1,3-thiazole-4-carboxamide]	30 to 50%
CCCN(C(=O)c1csc(-c2cnn(-c3cccc(C)c3)c2)n1)[C@H]1CCNC1 [Compound 28, 2-[1-(3-methylphenyl)-1H-pyrazol-4-yl]-N-propyl-N-[(3S)-pyrrolidin-3-yl]-1,3-thiazole-4-carboxamide]	10 to 30%
CCCN(C(=O)c1csc(-c2cnn(-c3cccc(C)c3)c2)n1)[C@@H]1CCNC1 [Compound 29, 2-[1-(3-methylphenyl)-1H-pyrazol-4-yl]-N-propyl-N-[(3R)-pyrrolidin-3-yl]-1,3-thiazole-4-carboxamide]	30 to 50%
CCCN(C(=O)c1csc(-c2cnn(-c3cccc(Cl)c3)c2)n1)[C@H]1CCNC1 [Compound 31, 2-[1-(3-chlorophenyl)-1H-pyrazol-4-yl]-N-propyl-N-[(3S)-pyrrolidin-3-yl]-1,3-thiazole-4-carboxamide]	10 to 30%
CCCN(C(=O)c1csc(-c2cnc(-c3ccccc3)o2)n1)[C@H]1CCNC1 [Compound 35, 2-(2-phenyl-1,3-oxazol-5-yl)-N-propyl-N-[(3S)-pyrrolidin-3-yl]-1,3-thiazole-4-carboxamide]	10 to 30%
CCCN(C(=O)c1csc(-c2cnn(-c3ccccc3)c2)c1)[C@@H]1CCNC1 [Compound 36, 5-(1-phenyl-1H-pyrazol-4-yl)-N-propyl-N-[(3R)-pyrrolidin-3-yl]thiophene-3-carboxamide]	10 to 30%
CCCN(C(=O)c1csc(-c2cnn(-c3ccc(Cl)cc3)c2)n1)[C@H]1CCNC1 [Compound 40, 2-[1-(4-chlorophenyl)-1H-pyrazol-4-yl]-N-propyl-N-[(3S)-pyrrolidin-3-yl]-1,3-thiazole-4-carboxamide]	10 to 30%
CCCN(C(=O)c1csc(-c2cnn(-c3ccc(Cl)cc3)c2)n1)[C@@H]1CCNC1 [Compound 41, 2-[1-(4-chlorophenyl)-1H-pyrazol-4-yl]-N-propyl-N-[(3R)-pyrrolidin-3-yl]-1,3-thiazole-4-carboxamide]	10 to 30%
CCCN(C(=O)c1csc(-c2cnn(-c3ccccc3)c2)c1)[C@H]1CCNC1 [Compound 42, 5-(1-phenyl-1H-pyrazol-4-yl)-N-propyl-N-[(3S)-pyrrolidin-3-yl]thiophene-3-carboxamide]	10 to 30%
CCCN(C(=O)c1csc(-c2cnn(-c3ccccn3)c2)n1)[C@H]1CCNC1 [Compound 43, N-propyl-2-[1-(pyridin-2-yl)-1H-pyrazol-4-yl]-N-[(3S)-pyrrolidin-3-yl]-1,3-thiazole-4-carboxamide]	10 to 30%
CCCN(C(=O)c1csc(-c2cnn(-c3ccccn3)c2)n1)[C@@H]1CCNC1 [Compound 44, N-propyl-2-[1-(pyridin-2-yl)-1H-pyrazol-4-yl]-N-[(3R)-pyrrolidin-3-yl]-1,3-thiazole-4-carboxamide]	10 to 30%
CCCN(C(=O)c1csc(-c2cnn(-c3ccc(OC(F)(F)F)cc3)c2)n1)[C@H]1CCNC1 [Compound 45, N-propyl-N-[(3S)-pyrrolidin-3-yl]-2-{1-[4-(trifluoromethoxy)phenyl]-1H-pyrazol-4-yl}-1,3-thiazole-4-carboxamide]	30 to 50%
CCCN(C(=O)c1csc(-c2cnn(-c3ccc(OC(F)(F)F)cc3)c2)n1)[C@@H]1CCNC1 [Compound 46, N-propyl-N-[(3R)-pyrrolidin-3-yl]-2-{1-[4-(trifluoromethoxy)phenyl]-1H-pyrazol-4-yl}-1,3-thiazole-4-carboxamide]	30 to 50%
CC(C)N(C(=O)c1csc(-c2cnn(-c3ccccc3C(F)(F)F)c2)n1)C1CCNCC1 [Compound 47, N-(piperidin-4-yl)-N-(propan-2-yl)-2-{1-[2-(trifluoromethyl)phenyl]-1H-pyrazol-4-yl}-1,3-thiazole-4-carboxamide]	30 to 50%
CCCN(C(=O)c1csc(-c2cnn(-c3cccc(C(F)(F)F)c3)c2)n1)[C@H]1CCNC1 [Compound 48, N-propyl-N-[(3S)-pyrrolidin-3-yl]-2-{1-[3-(trifluoromethyl)phenyl]-1H-pyrazol-4-yl}-1,3-thiazole-4-carboxamide]	50 to 100%
CCCN(C(=O)c1csc(-c2cnn(-c3cccc(C(F)(F)F)c3)c2)n1)[C@@H]1CCNC1 [Compound 49, N-propyl-N-[(3R)-pyrrolidin-3-yl]-2-{1-[3-(trifluoromethyl)phenyl]-1H-pyrazol-4-yl}-1,3-thiazole-4-carboxamide]	30 to 50%
COc1cccc(-n2cc(-c3nc(C(=O)N4CCC[C@@H]4CN)cs3)cn2)c1 [Compound 50, 1-[(2R)-1-{2-[1-(3-methoxyphenyl)-1H-pyrazol-4-yl]-1,3-thiazole-4-carbonyl}pyrrolidin-2-yl]methanamine]	50 to 100%
CCCN(C(=O)c1csc(-c2cnn(-c3cccc(OC)c3)c2)n1)[C@H]1CCNC1 [Compound 51, 2-[1-(3-methoxyphenyl)-1H-pyrazol-4-yl]-N-propyl-N-[(3S)-pyrrolidin-3-yl]-1,3-thiazole-4-carboxamide]	30 to 50%
CCCN(C(=O)c1csc(-c2cnn(-c3cccc(F)c3)c2)n1)[C@H]1CCNC1 [Compound 52, 2-[1-(3-fluorophenyl)-1H-pyrazol-4-yl]-N-propyl-N-[(3S)-pyrrolidin-3-yl]-1,3-thiazole-4-carboxamide]	10 to 30%
CCCN(C(=O)c1csc(-c2cnn(-c3cccc(F)c3)c2)n1)[C@@H]1CCNC1 [Compound 53, 2-[1-(3-fluorophenyl)-1H-pyrazol-4-yl]-N-propyl-N-[(3R)-pyrrolidin-3-yl]-1,3-thiazole-4-carboxamide]	10 to 30%
CCCN(C(=O)c1csc(-c2cnn(-c3ccc(F)cc3)c2)n1)[C@@H]1CCNC1 [Compound 54, 2-[1-(4-fluorophenyl)-1H-pyrazol-4-yl]-N-propyl-N-[(3R)-pyrrolidin-3-yl]-1,3-thiazole-4-carboxamide]	10 to 30%
CCCN(C(=O)c1csc(-c2cnn(-c3cccc(OC)c3)c2)n1)[C@@H]1CCNC1 [Compound 56, 2-[1-(3-methoxyphenyl)-1H-pyrazol-4-yl]-N-propyl-N-[(3R)-pyrrolidin-3-yl]-1,3-thiazole-4-carboxamide]	10 to 30%
Cc1ccc(-n2cc(-c3nc(C(=O)N(C(C)C)C4CCNCC4)cs3)cn2)cc1 [Compound 57, 2-[1-(4-methylphenyl)-1H-pyrazol-4-yl]-N-(piperidin-4-yl)-N-(propan-2-yl)-1,3-thiazole-4-carboxamide]	30 to 50%
CCCN(C(=O)c1csc(-c2cnn(-c3ccc(F)cc3)c2)n1)[C@H]1CCNC1 [Compound 58, 2-[1-(4-fluorophenyl)-1H-pyrazol-4-yl]-N-propyl-N-[(3S)-pyrrolidin-3-yl]-1,3-thiazole-4-carboxamide]	10 to 30%

Same assay, conditions: Homo sapiens; U2OS cells, concentration of 0.8 μM; read-out: Activity (percentage increase in acidic vesicle formation), Table 2a Preferred compounds

SMILES	activation at 0.8 µM
CCCN(C(=O)c1csc(-c2cnn(-c3cccc(C(F)(F)F)c3)c2)n1)[C@H]1CCNC1 [Compound 48, N-propyl-N-[(3S)-pyrrolidin-3-yl]-2-{1-[3-(trifluoromethyl)phenyl]-1H-pyrazol-4-yl}-1,3-thiazole-4-carboxamide]	50 to 100%
COc1cccc(-n2cc(-c3nc(C(=O)N4CCC[C@@H]4CN)cs3)cn2)c1 [Compound 50, 1-[(2R)-1-{2-[1-(3-methoxyphenyl)-1H-pyrazol-4-yl]-1,3-thiazole-4-carbonyl}pyrrolidin-2-yl]methanamine]	50 to 100%
